Laboratory results published in article PMC9502539, “1,2,3-Triazole-Benzofused Molecular Conjugates as Potential Antiviral Agents against SARS-CoV-2 Virus Variants” (Life, 2022).
Like-named read-outs stand apart in the source and are kept apart here.

Biological target: Omicron spike protein (Severe acute respiratory syndrome coronavirus 2, UniProt P0DTC2, E484A/G339D/G446S/G496S/K417N/N440K/N501Y/Q493R/Q498R/S371L/S373P/S375F/S477N/T478K/Y505H)
Format: binding, SARS-CoV-2 Omicron variant (B.1.1.529 BA.1)

| Structure (SMILES) | remaining activity % of omicron spike proteins (0.1 µM) | remaining activity % of omicron spike proteins (0.2 µM) | remaining activity % of omicron spike proteins (0.5 µM) | remaining activity % of omicron spike proteins (0.75 µM) | remaining activity % of omicron spike proteins (1 µM) |
| --- | --- | --- | --- | --- | --- |
| CC(C)(O/N=C(\C(=O)N[C@@H]1C(=O)N2C(C(=O)[O-])=C(C[n+]3ccccc3)CS[C@H]12)c1csc(N)n1)C(=O)O [Ceftazidime, ceftazidime, reference compound] | 89% | 68% | 54% | 44% | 34% |
| O=C(Cn1cc(CSc2nc3ccccc3n2Cc2cn(CC(=O)NNC(=S)Nc3ccccc3)nn2)nn1)NNC(=S)Nc1ccccc1 [compound 4] | 73.1% | 40% | 20% | 10% | 8% |
| O=C(Cn1cc(CSc2nc3ccccc3n2Cc2cn(CC(=O)NNC(=S)Nc3ccc(F)cc3)nn2)nn1)NNC(=S)Nc1ccc(F)cc1 [compound 5] | 82% | 38.7% | 30% | 20% | 16% |
| S=c1[nH]nc(Cn2cc(CSc3nc4ccccc4n3Cc3cn(Cc4n[nH]c(=S)n4-c4ccccc4)nn3)nn2)n1-c1ccccc1 [compound 6] | 79% | 45.6% | 29% | 16% | 10% |
| Nn1c(Cn2cc(CSc3nc4ccccc4n3Cc3cn(Cc4n[nH]c(=S)n4N)nn3)nn2)n[nH]c1=S [compound 7] | 85% | 43% | 40% | 35% | 30% |
| Cc1onc(NS(=O)(=O)c2ccc(-n3cc(CSc4nc5ccccc5n4Cc4cn(-c5ccc(S(=O)(=O)Nc6noc(C)c6C)cc5)nn4)nn3)cc2)c1C [compound 9] | 65.8% | 30.4% | 10.3% | 5.1% | 2% |
| Cc1ccc2nc(NC(=O)Cn3cc(CN4C(=O)C(=O)c5ccccc54)nn3)sc2c1 [compound 12] | 94% | 90% | 82% | 74% | 59% |
